Assay results taken from publication PMC12663137 (Nature Communications, 2025).
Values joined by “and” are separate entries in the source; they are usually repeats but may differ in a detail not shown here. Identical values can stand only once. Blank lines part the entries; values can stand above or below the compound they belong to.

What was measured:
SV2AEM = target: T1, SV2AEM (Homo sapiens, UniProt Q7L0J3); assay: Competitive displacement of 10 nM 3H-UCB-J, SV2AEM membranes (Fig. 1A); assay type: binding; conditions: for Binding of 3H-UCB-J (%): SV2A_EM; for binding response of SV2AEM vs wild-type SV2A: competition with 3H-UCB-J
T1 construct: expressed in transfected cells; host or cells: HEK293 (ATCC CRL-1573), crude membranes (transient transfection or baculovirus)
Method: (§1) Ligand binding studies were carried out using crude membranes prepared from HEK293 cells (ATCC, CRL-1573) overexpressing mVenus-SV2AWT or SV2AEM. Membranes were prepared either from transiently transfected cells or from baculovirus-infected cells as described previously. Cells were washed with DPBS (Ca^2+ and Mg^2+ free), followed by resuspending in cold SH buffer (10 mM HEPES-Tris pH 7.4, 320 mM sucrose) containing protease inhibitor cocktail (MedChemExpress) to a density of 10^7 cells/ml. This cell suspension was homogenized by passing through a bead homogenizer (Isobiotec) with 10-micron clearance bead on ice. The lysate was then centrifuged at 4000 × g for 5 min at 4 °C, and the supernatant was aliquoted, frozen in liquid nitrogen, and stored at −80 °C. The mVenus fluorescence estimated using fluorescence size-exclusion chromatography (FSEC) was used to normalize expression levels of mVenus-SV2A mutants studied as detailed previously. For all binding studies, membranes containing […] protein (estimated by BCA method) per reaction were used.
(§2) To obtain dose-response curves of studied SV2A ligands, membranes diluted in 0.2 ml binding buffer (50 mM Tris-Cl, pH 7.4, and 2 mM MgCl2) were incubated with indicated concentrations of ligands for 30 min at 4 °C. […] The binding reaction was arrested by trapping membranes on Unifilter-GF/C 96-well filter plates (Revvity) pre-soaked with 0.1%(w/v) polyethyleneimine (PEI). Membranes were then washed four times with 0.2 ml of cold binding buffer, dried, and 40 µl of scintillation liquid was added to each well. Radioactivity was monitored in MicroBeta2 plate counter (Revvity). Estimates for IC50 were obtained from fitting the data to three-parameter dose-response curves using GraphPad Prism 10.

SV2AWT = target: T2, SV2AWT (Homo sapiens, UniProt Q7L0J3); assay: Competitive displacement of 10 nM 3H-UCB-J, SV2AWT membranes (Fig. 1A); assay type: binding; conditions: SV2A_WT
T2 construct: expressed in transfected cells; host or cells: HEK293 (ATCC CRL-1573), crude membranes
Method: as §1, §2

SV2A WT and L655Q [1] = assay: 3H-padsevonil saturation binding, WT and L655Q (Supplementary Fig. 7D); parameters: species or system human; conditions: L655Q vs WT
Method: as §1
An equal volume of dimethyl sulfoxide (DMSO) was added to control reactions. Reactions were arrested after 2 h by trapping the membranes on a Unifilter-GF/C 96-well filter plate pre-soaked with 0.1%(w/v) polyethyleneimine. […] Radioactivity was monitored in MicroBeta2 plate counter. […]

SV2A WT and L655Q [2] = test system: SV2A WT and L655Q; parameters: method as in PMID: 31619465; conditions: previous literature; ref PMID: 31619465; cited from earlier work
SV2A [3] = test system: SV2A; parameters: method as in PMID: 31619465; conditions: PSL vs BRV; ref PMID: 31619465; cited from earlier work
SV2A [4] = assay: Affinity of PSL for the orthosteric site compared with LEV and BRV (author response); assay type: binding; conditions: PSL vs LEV
Text: - Does PSL modulate the binding of LEV or BRV to SV2A? Based on the ﬁndings of the present study, such experiments need to be included.
We appreciate this comment. It is not feasible to evaluate the modulatory eƯect of PSL on the binding of LEV or BRV, because PSL also binds to the orthosteric site, with much higher aƯinity than LEV (>1000-fold) or BRV (~100-fold), and directly competes with and readily displaces them (see Fig. below, for LEV , and PMID:
31619465 for BRV). This competitive eƯect of PSL on LEV and BRV has also been described in the literature (PMID: 31619465). We have discussed this limitation in the revised manuscript.
- SV2s belong to the SLC22 family. Is the allosteric binding site conserved in some of these proteins like for […]
Among the four key residues in the allosteric site (F188, Y461, S601, and L655), F188 and Y461 are conserved in OCT1 and OCT2; S601 is not conserved, and L655 is replaced by an alanine in OCT1 and OCT2 (Fig. below).
- Because no information is provided, I guess that the allosteric binding site of SV2A is not conserved in all MFS transporters. Therefore, the title is misleading and should be changed.
As described above, some of the key residues at this site are conserved in OCTs. However, it is unlikely that any single site, orthosteric or allosteric, is conserved across the entire MFS transporter family, and we fully […]

T1 sequence (Q7L0J3 141-742): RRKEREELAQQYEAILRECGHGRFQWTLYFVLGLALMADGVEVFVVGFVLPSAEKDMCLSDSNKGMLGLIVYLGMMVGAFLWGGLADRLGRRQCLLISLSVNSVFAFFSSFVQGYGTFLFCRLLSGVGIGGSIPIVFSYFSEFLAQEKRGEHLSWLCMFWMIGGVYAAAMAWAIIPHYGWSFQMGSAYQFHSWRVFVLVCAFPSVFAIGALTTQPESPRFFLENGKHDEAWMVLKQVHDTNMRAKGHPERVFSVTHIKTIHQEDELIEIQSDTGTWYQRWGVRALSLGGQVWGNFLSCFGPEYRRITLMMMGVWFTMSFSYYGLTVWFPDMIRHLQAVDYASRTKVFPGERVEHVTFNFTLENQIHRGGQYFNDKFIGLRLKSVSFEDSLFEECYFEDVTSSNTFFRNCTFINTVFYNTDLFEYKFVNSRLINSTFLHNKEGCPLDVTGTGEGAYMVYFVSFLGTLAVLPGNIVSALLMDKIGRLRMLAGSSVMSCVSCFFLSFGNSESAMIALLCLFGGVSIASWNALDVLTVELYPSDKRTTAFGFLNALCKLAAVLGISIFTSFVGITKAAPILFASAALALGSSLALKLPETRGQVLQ
T2 sequence (Q7L0J3 whole entry): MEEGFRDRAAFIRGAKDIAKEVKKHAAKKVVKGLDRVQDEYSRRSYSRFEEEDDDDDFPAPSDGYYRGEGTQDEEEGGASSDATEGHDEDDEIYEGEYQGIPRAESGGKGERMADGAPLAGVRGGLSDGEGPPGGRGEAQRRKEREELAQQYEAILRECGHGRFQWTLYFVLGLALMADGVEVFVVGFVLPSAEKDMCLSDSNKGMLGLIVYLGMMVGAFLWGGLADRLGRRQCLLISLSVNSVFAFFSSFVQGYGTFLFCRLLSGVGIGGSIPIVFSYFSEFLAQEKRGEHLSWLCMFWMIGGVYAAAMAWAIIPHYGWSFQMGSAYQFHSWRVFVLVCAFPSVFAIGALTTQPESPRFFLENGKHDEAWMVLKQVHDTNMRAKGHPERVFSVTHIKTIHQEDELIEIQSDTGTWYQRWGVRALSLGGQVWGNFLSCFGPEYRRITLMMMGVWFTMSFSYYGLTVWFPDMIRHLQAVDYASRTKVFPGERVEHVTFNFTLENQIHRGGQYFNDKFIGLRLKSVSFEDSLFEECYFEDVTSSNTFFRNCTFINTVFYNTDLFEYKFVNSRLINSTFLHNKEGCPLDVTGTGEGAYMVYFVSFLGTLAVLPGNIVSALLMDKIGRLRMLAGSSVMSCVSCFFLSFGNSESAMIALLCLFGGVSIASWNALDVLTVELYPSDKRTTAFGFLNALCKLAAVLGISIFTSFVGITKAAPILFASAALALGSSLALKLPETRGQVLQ

Binding of 3H-UCB-J (%) (SV2AEM; Log [1H-UCB-J] (M) -10.000): 81.17% and 90.15% | IC50 fold lower than that of levetiracetam (SV2AEM; UCB-J vs levetiracetam): 1000 fold | binding response of SV2AEM vs wild-type SV2A (SV2AEM): comparable to those of wild-type SV2A | IC50 (SV2AEM; radioligand displacement, 10 nM 3H-UCB-J, padsevonil sentence prints SV2A (Fig. 1)): 4.1 ± 0.4 nM | Binding of 3H-UCB-J (%) (SV2AWT; Log [1H-UCB-J] (M) -5.000): 0.68% and -0.10%
Structure (SMILES): Cc1cnccc1CN1C[C@@H](c2cc(F)c(F)c(F)c2)CC1=O [UCB-J]
Binding of 3H-UCB-J (%) (SV2AEM; Log [1H-UCB-J] (M) -6.523): 2.78% and -1.47% and -5.78% and -0.31% and 4.06% and 1.75% | Binding of 3H-UCB-J (%) (SV2AEM; Log [1H-UCB-J] (M) -7.523): 15.59% and 10.62% and 12.56% and 12.68% and 13.47% and 20.94% | Binding of 3H-UCB-J (%) (SV2AEM; Log [1H-UCB-J] (M) -8.000): 31.93% and 22.52% and 28.83% and 28.77% and 31.87% and 32.29% | Binding of 3H-UCB-J (%) (SV2AEM; Log [1H-UCB-J] (M) -8.523): 75.64% and 50.69% and 48.99% and 56.15% and 58.52% and 59.86% | Binding of 3H-UCB-J (%) (SV2AEM; Log [1H-UCB-J] (M) -9.000): 73.21% and 53.48% and 72.67% and 79.47% and 76.43% and 84.63% | Binding of 3H-UCB-J (%) (SV2AEM; Log [1H-UCB-J] (M) -11.000): 103.75% and 70.18% and 88.51% and 77.34% and 86.03% and 113.17% | Binding of 3H-UCB-J (%) (SV2AEM; Log [1H-UCB-J] (M) -12.000): 116.50% and 86.88% and 109.04% and 74.97% and 104.60% and 108.00% | Binding of 3H-UCB-J (%) (SV2AWT; Log [1H-UCB-J] (M) -6.000): 0.71% and -0.36% and 1.84% and 0.28% and 0.81% and 0.45% | Binding of 3H-UCB-J (%) (SV2AWT; Log [1H-UCB-J] (M) -6.523): 1.22% and 0.52% and -0.33% and 0.54% and 1.39% and 0.90% | Binding of 3H-UCB-J (%) (SV2AWT; Log [1H-UCB-J] (M) -7.523): 12.02% and 10.25% and 9.91% and 8.99% and 8.62% and 8.05% | Binding of 3H-UCB-J (%) (SV2AWT; Log [1H-UCB-J] (M) -8.000): 31.03% and 29.35% and 27.21% and 30.71% and 28.47% and 28.55% | Binding of 3H-UCB-J (%) (SV2AWT; Log [1H-UCB-J] (M) -8.523): 65.52% and 65.94% and 58.12% and 42.68% and 40.88% and 45.33% | Binding of 3H-UCB-J (%) (SV2AWT; Log [1H-UCB-J] (M) -9.000): 87.65% and 87.60% and 75.33% and 94.15% and 69.01% and 65.28% | Binding of 3H-UCB-J (%) (SV2AWT; Log [1H-UCB-J] (M) -9.523): 75.61% and 87.06% and 81.72% and 100.70% and 107.65% and 91.65% | Binding of 3H-UCB-J (%) (SV2AWT; Log [1H-UCB-J] (M) -10.000): 99.86% and 95.05% and 102.73% and 88.69% and 93.37% and 102.84% | Binding of 3H-UCB-J (%) (SV2AWT; Log [1H-UCB-J] (M) -11.000): 103.52% and 102.05% and 94.43% and 83.50% and 83.58% and 84.45%

binding response of SV2AEM vs wild-type SV2A (SV2AEM): comparable to those of wild-type SV2A
Structure (SMILES): COCc1nn2c(CN3C[C@@H](CC(F)(F)Cl)CC3=O)c(C(F)(F)F)nc2s1 [padsevonil]
padsevonil binding in L655Q mutant compared to wild-type (SV2A WT and L655Q [1]): not able to detect a substantial difference | Hill coefficient (SV2A WT and L655Q [2]): ~1 | Binding of 3H-UCB-J (%) (SV2AEM; Log [Padsevonil] (M) -5.000): 3.25% and 0.52% and -0.52% and -1.49% and 2.74% and 1.94% | Binding of 3H-UCB-J (%) (SV2AEM; Log [Padsevonil] (M) -6.000): 0.40% and 1.18% and 0.39% and -2.99% and 2.99% and -0.40% | Binding of 3H-UCB-J (%) (SV2AEM; Log [Padsevonil] (M) -6.523): 3.53% and 6.77% and 1.25% and 5.54% and 6.72% and 2.16% | Binding of 3H-UCB-J (%) (SV2AEM; Log [Padsevonil] (M) -8.000): 61.56% and 69.84% and 60.36% and 64.16% and 85.63% and 52.51% | Binding of 3H-UCB-J (%) (SV2AEM; Log [Padsevonil] (M) -8.523): 98.63% and 86.36% and 64.73% and 84.51% and 93.84% and 76.42% | Binding of 3H-UCB-J (%) (SV2AEM; Log [Padsevonil] (M) -9.000): 99.89% and 102.95% and 84.66% and 80.15% and 101.99% and 100.11% | Binding of 3H-UCB-J (%) (SV2AEM; Log [Padsevonil] (M) -10.000): 102.45% and 91.95% and 108.05% and 96.45% and 103.55% and 82.92% | Binding of 3H-UCB-J (%) (SV2AWT; Log [Padsevonil] (M) -5.523): 0.15% and -0.08% and -0.07% and 0.0758% and -0.0562% | Binding of 3H-UCB-J (%) (SV2AWT; Log [Padsevonil] (M) -6.000): 0.06% and 0.26% and 0.47% and 0.68% and 0.17% and 0.52% | Binding of 3H-UCB-J (%) (SV2AWT; Log [Padsevonil] (M) -6.523): -0.0333% and 0.63% and 1.13% and 0.79% and 1.06% | Binding of 3H-UCB-J (%) (SV2AWT; Log [Padsevonil] (M) -7.000): 0.99% and 1.18% and 1.52% and 1.41% and 1.96% and 1.26% | Binding of 3H-UCB-J (%) (SV2AWT; Log [Padsevonil] (M) -7.523): 11.48% and 11.90% and 12.69% and 11.26% and 10.29% and 8.18% | Binding of 3H-UCB-J (%) (SV2AWT; Log [Padsevonil] (M) -8.000): 53.01% and 65.10% and 62.58% and 68.15% and 66.28% and 57.17% | Binding of 3H-UCB-J (%) (SV2AWT; Log [Padsevonil] (M) -8.523): 80.92% and 83.61% and 90.83% and 87.28% and 90.55% and 93.06% | Binding of 3H-UCB-J (%) (SV2AWT; Log [Padsevonil] (M) -9.000): 70.83% and 92.57% and 94.89% and 80.96% and 85.33% and 98.78% | Binding of 3H-UCB-J (%) (SV2AWT; Log [Padsevonil] (M) -9.523): 81.14% and 79.95% and 92.20% and 92.92% and 81.04% and 90.08% | Binding of 3H-UCB-J (%) (SV2AWT; Log [Padsevonil] (M) -10.000): 105.07% and 88.23% and 106.70% and 105.83% and 107.31% and 86.86% | orthosteric site affinity higher than BRV (SV2A [3]): ~ 100 fold | orthosteric site affinity higher than LEV (SV2A [4]): > 1000 fold
